In patent US7342137B1, “Cyclohexenone compounds from Antrodia camphorata and application thereof” (Golden Biotechnology Corporation, priority 2007, dated 2008):

What was measured:
Type in all cases: cell-based
[1] = test system: human breast-cancer cells, MCF-7; assay: In vitro Taxol add-on study (MTT), MCF-7; conditions: Homo sapiens, MCF7, 0.0017 μg/ml Taxol + formula 2
Protocol: The experiment was also carried out according to NCI anti-cancer drug screen in vitro model. The human breast-cancer cells, MCF-7 and MDA-MB-231 were separately cultivated in media containing fetal calf serum for 24 hours. The proliferated cells were washed once with PBS, then treated with 1× trypsin-EDTA and centrifuged at 1200 rpm for 5 minutes. The supernatant was discarded and the cell pellet was resuspended in 10 ml of fresh culture medium by gently shaking. The cells were placed in a 96-well plate after 0.0017 μg/ml Taxol was added and treated for 72 hours. 4-hydroxy-2,3-dimethoxy-6-methyl-5(3,7,11-trimethyl-dodeca-2,6,10-trienyl)-cyclohex-2-enone obtained from example 1 were added respectively into each of the 96 wells at the following concentrations: 0 μg/ml (the control group); 30, 10, 3, 1, 0.3, 0.1 and 0.03 μg/ml (the experiment group). The cells were incubated at 37° C. in a 5% CO2 incubator for 48 hours. MTT was added in a concentration of 2.5 mg/ml into each well in dark and reacted for 4 hours, followed by the addition of 100 μl of lysis buffer to terminate the reaction. The plates were read on an ELISA reader at wavelength of 570 nm to determine the survival rates.

[2] = test system: human hepatic cancer cells, Hep G2; assay: In vitro Taxol add-on study (MTT), Hep G2; conditions: Homo sapiens, HepG2, 0.0017 μg/ml Taxol + formula 2
Protocol: (§1) The experiment was also carried out according to NCI anti-cancer drug screen in vitro model. The human hepatic cancer cells, Hep 3B and Hep G2 and MDA-MB-231 were separately cultivated in media containing fetal calf serum for 24 hours. The proliferated cells were washed once with PBS, then treated with 1× trypsin-EDTA and centrifuged at 1200 rpm for 5 minutes. The supernatant was discarded and the cell pellet was resuspended in 10 ml of fresh culture medium by gently shaking. The Hep 3B cells were treated with 0.0043 μg/ml of Lovastatin for 72 hours and Hep G2 cells were treated with 0.0017 μg/ml of Taxol for 72 hours before placing in a 96-well plate. 4-hydroxy-2,3-dimethoxy-6-methyl-5(3,7,11-trimethyl-dodeca-2,6,10-trienyl)-cyclohex-2-enone obtained from example 1 were added respectively into each of the 96 wells at the following concentrations: 0 μg/ml (the control group); 30, 10, 3, 1, 0.3, 0.1 and 0.03 μg/ml (the experiment group). The cells were incubated at 37° C. in a 5% CO2 incubator for 48 hours. MTT was added in a concentration of 2.5 mg/ml into each well in dark and reacted for 4 hours, followed by the addition of 100 μl of lysis buffer to stop the reaction. The plates were read on an ELISA reader at wavelength of 570 nm to determine the survival rates.

[3] = test system: human prostate cancer cells, LNCaP; assay: In vitro survival assay (MTT), prostate cancer cells LNCaP; conditions: 48 hours incubation
Protocol: The NCI anti-cancer drug screen model was also adopted to test the anti-cancer effect of the compound isolated from example 1 in the present invention. The isolated compound of 4-hydroxy-2,3-dimethoxy-6-methyl-5(3,7,11-trimethyl-dodeca-2,6,10-trienyl)-cyclohex-2-enone from example 1 was added into the culture media of human prostate cancer cells, LNCaP or DU-145, for tumor cell survival assay.
The human […] cells, LNCaP and DU-145, were separately cultivated in media containing fetal calf serum for 24 hours. The proliferated cells were washed once with PBS, then treated with 1× trypsin-EDTA and centrifuged at 1200 rpm for 5 minutes. The supernatant was discarded and the cell pellet was resuspended in 10 ml of fresh culture medium by gently shaking. The cells were placed in a 96-well plate. Ethanol extracts of Antrodia camphorata (the control group, total extracts of Antrodia camphorata without purification) or 4-hydroxy-2,3-dimethoxy-6-methyl-5(3,7,11-trimethyl-dodeca-2,6,10-trienyl)-cyclohex-2-enone (the experiment group) were added into each of the 96 wells at the following concentrations: 30, 10, 3, 1, 0.3, 0.1 and 0.03 μg/ml, respectively. The cells were incubated at 37° C. in a 5% CO2 incubator for 48 hours. […] The plates were read on an ELISA reader at wavelength of 570 nm to determine the survival rates.

[4] = test system: human prostate cancer cells, LNCaP; assay: In vitro Taxol add-on study (MTT), prostate cancer cells LNCaP; conditions: Homo sapiens; LNCaP (0.0017 μg/ml Taxol + formula 2) as printed in Table 6
Protocol: as §1, with “human prostate” for “human hepatic”, “cells, LNCaP” for “cells, Hep 3B”, “and DU-145” for “and Hep G2 and MDA-MB-231”, “The LNCaP cells were treated with 0.0017 μg/ml of Taxol for 72 hours and DU-145” for “The Hep 3B”, “0.0043” for “0.0043 μg/ml of Lovastatin for 72 hours and Hep G2 cells were treated with 0.0017”

## COC1=C(OC)C(O)C(C/C=C(\C)CC/C=C(\C)CCC=C(C)C)C(C)C1=O (stereo not shown) [formula 2, 4-hydroxy-2,3-dimethoxy-6-methyl-5(3,7,11-trimethyl-dodeca-2,6,10-trienyl)-cyclohex-2-enone]
[1]
  IC50: 0.009 µg/mL
[2]
  IC50: 0.008 µg/mL
[3]
  IC50: 2.38 µg/mL
[4]
  IC50: 0.961 µg/mL
